Legend:
[1] = tested on: AMPKα1 wild-type (WT) and knockout (KO) mice; experiment: Lung histopathologic analysis after hemorrhagic shock; type: in vivo; settings: 100 μg/kg intra-arterially, 3 h after resuscitation
Text: (§1) Murine model of hemorrhagic shock. The experiments conformed to the Guide for the Care and Use of Laboratory Animals published by the US National Institutes of Health (Eighth edition, 2011) and had the approval of the Institutional Animal Care and Use Committee. Homozygous AMPKα1 wild-type (WT) and AMPKα1 knockout (KO) mice were established on a C57/BL6 genetic background by the crossbreeding (>10 generations) of a breeding pair provided by Dr. Benoit Viollet of the University of Paris Descartes (Paris, France). For these experiments, female AMPKα1 WT and KO mice were generated by a breeding scheme utilizing heterozygous mutant mice. Female mice were used at random stages of the estrous cycle at the age of 3 to 5 months and assigned to the different experimental groups after routine genotyping by quantitative polymerase chain reaction. All mice were allowed free access to water and a maintenance diet in a 12-h light/dark cycle, with room temperature at 21±2° C. Mice were anesthetized with pentobarbital (80 mg/kg) intraperitoneally and prepared for hemorrhagic shock, as previously described. […] Mice were monitored for 3 hours after resuscitation for cardiovascular parameters. […]
Histopathologic analysis. […] Sections were stained with hematoxylin and eosin and evaluated by an independent observer blinded to the treatment groups. […]

STAT3 = experiment: Western blot of STAT3, pSTAT3(Ser727), pSTAT3(Tyr705) in cytosol and nuclear extracts of lung and heart; type: in vivo, mice
Text: (§2) Murine model of hemorrhagic shock. The experiments conformed to the Guide for the Care and Use of Laboratory Animals published by the US National Institutes of Health (Eighth edition, 2011) and had the approval of the Institutional Animal Care and Use Committee. Homozygous AMPKα1 wild-type (WT) and AMPKα1 knockout (KO) mice were established on a C57/BL6 genetic background by the crossbreeding (>10 generations) of a breeding pair provided by Dr. Benoit Viollet of the University of Paris Descartes (Paris, France). For these experiments, female AMPKα1 WT and KO mice were generated by a breeding scheme utilizing heterozygous mutant mice. Female mice were used at random stages of the estrous cycle at the age of 3 to 5 months and assigned to the different experimental groups after routine genotyping by quantitative polymerase chain reaction. All mice were allowed free access to water and a maintenance diet in a 12-h light/dark cycle, with room temperature at 21±2° C. Mice were anesthetized with pentobarbital (80 mg/kg) intraperitoneally and prepared for hemorrhagic shock, as previously described. Briefly, either the left or right femoral artery was cannulated using PE-10 tubing, and connected to a blood pressure transducer (PowerLab, AD Instruments, Colorado Springs, CO) for measurement of mean arterial blood pressure (MABP) and heart rate (HR). Blood was removed from the femoral artery over a 10-minute period until MABP reached 30±5 mmHg. The mice were kept in this MABP range for 90 min by additional blood removal or small volume transfusion. At the end of the shock period, mice were resuscitated by infusing their shed blood and twice that amount in Lactated Ringer's solution over a 10-min period. AMPKα1 WT and KO mice were also randomly assigned to two treatment groups: a vehicle group (distilled water, 500 μL) and a humanin-G (100 μg/kg) group. Drug treatment was given intra-arterially as single bolus right before resuscitation, and at 1 and 2 hours thereafter. Dose of humanin was chosen according to reported pharmacokinetics and pharmacodynamics of the drug in the mice. Mice were monitored for 3 hours after resuscitation for cardiovascular parameters. […] Mice were sacrificed at 3 hours after resuscitation and blood, heart and lungs were collected for biochemical assays.
Cytosol and nuclear extracts. Heart and lung tissues were homogenized using a Polytron homogenizer (Brinkman Instruments, West Orange, NY) in a buffer containing 0.32 M sucrose, 10 mM TrisHCl (pH 7.4), 1 mM EGTA, 2 mM EDTA, 5 mM NaN3, 10 mM β-mercaptoethanol, […], 0.15 mM pepstatin A, 0.2 mM phenylmethanesulfonyl fluoride, 50 mM NaF, 1 mM sodium orthovanadate, and 0.4 nM microcystin. Samples were centrifuged at 1,000 g for 10 min at […] and the supernatants collected as cytosol extracts. The pellets were then solubilized in Triton buffer (1% Triton X-100, 250 mM NaCl, 50 mM Tris HCl at pH 7.5, 3 mM EGTA, 3 mM EDTA, 0.1 mM phenylmethanesulfonyl fluoride, 0. 1 mM sodium orthovanadate, 10% glycerol, 2 mM p-nitrophenyl phosphate, 0.5% NP-40, and […]). The lysates were centrifuged at 15,000 g for 30 min at […] and the supernatant collected as nuclear extracts. The Bradford protein assay was used for quantitative determination of total proteins.
Western blot analysis. Cytosol and nuclear content of STAT3 and its two phosphorylated active forms pSTAT3(Tyr705) and pSTAT3(Ser727), and mitochondrial content of pSTAT3(Ser727) and the Complex I subunit GRIM-19 (gene associated with retinoid-IFN-induced mortality) were determined by immunoblotting analyses. Extracts were heated at 70° C. in equal volumes of ×4 Protein Sample Loading Buffer. Twenty μg of protein were loaded per lane on a 10% Bis-Tris gel. Proteins were separated electrophoretically and transferred to nitrocellulose membranes. […]

[2] = tested on: AMPKα1 wild-type (WT) and knockout (KO) mice; experiment: ATP assay in heart tissue after hemorrhagic shock; type: in vivo; settings: 100 μg/kg intra-arterially, 3 h after resuscitation
Text: as §1
ATP assay. ATP levels were measured in heart tissue homogenates using a commercially available ATP assay kit (BioVision, Milpitas, CA) and following the protocol recommended by the manufacturer.

[3] = tested on: AMPKα1 wild-type (WT) and knockout (KO) mice; experiment: Murine hemorrhagic shock model: mean arterial blood pressure and heart rate; type: in vivo
Text: Murine model of hemorrhagic shock. The experiments conformed to the Guide for the Care and Use of Laboratory Animals published by the US National Institutes of Health (Eighth edition, 2011) and had the approval of the Institutional Animal Care and Use Committee. Homozygous AMPKα1 wild-type (WT) and AMPKα1 knockout (KO) mice were established on a C57/BL6 genetic background by the crossbreeding (>10 generations) of a breeding pair provided by Dr. Benoit Viollet of the University of Paris Descartes (Paris, France). For these experiments, female AMPKα1 WT and KO mice were generated by a breeding scheme utilizing heterozygous mutant mice. Female mice were used at random stages of the estrous cycle at the age of 3 to 5 months and assigned to the different experimental groups after routine genotyping by quantitative polymerase chain reaction. All mice were allowed free access to water and a maintenance diet in a 12-h light/dark cycle, with room temperature at 21±2° C. Mice were anesthetized with pentobarbital (80 mg/kg) intraperitoneally and prepared for hemorrhagic shock, as previously described. Briefly, either the left or right femoral artery was cannulated using PE-10 tubing, and connected to a blood pressure transducer (PowerLab, AD Instruments, Colorado Springs, CO) for measurement of mean arterial blood pressure (MABP) and heart rate (HR). Blood was removed from the femoral artery over a 10-minute period until MABP reached 30±5 mmHg. The mice were kept in this MABP range for 90 min by additional blood removal or small volume transfusion. At the end of the shock period, mice were resuscitated by infusing their shed blood and twice that amount in Lactated Ringer's solution over a 10-min period. AMPKα1 WT and KO mice were also randomly assigned to two treatment groups: a vehicle group (distilled water, 500 μL) and a humanin-G (100 μg/kg) group. Drug treatment was given intra-arterially as single bolus right before resuscitation, and at 1 and 2 hours thereafter. […] Mice were monitored for 3 hours after resuscitation for cardiovascular parameters. […]

[4] = tested on: STAT3 and Complex I subunit GRIM-19; experiment: Western blot of pSTAT3(Ser727) and GRIM-19 in mitochondrial extracts of lung and heart; type: in vivo, mice
Text: as §2
Mitochondrial extracts. Mitochondria were isolated from hearts and lungs using a commercially available mitochondria isolation kit (TermoFisher Scientific, Waltham, MA) and following the protocol recommended by the manufacturer. The Bradford protein assay was used for quantitative determination of total proteins.
Western blot analysis. Cytosol and nuclear content of STAT3 and its two phosphorylated active forms pSTAT3(Tyr705) and pSTAT3(Ser727), and mitochondrial content of pSTAT3(Ser727) and the Complex I subunit GRIM-19 (gene associated with retinoid-IFN-induced mortality) were determined by immunoblotting analyses. Extracts were heated at 70° C. in equal volumes of ×4 Protein Sample Loading Buffer. Twenty μg of protein were loaded per lane on a 10% Bis-Tris gel. Proteins were separated electrophoretically and transferred to nitrocellulose membranes. Immunoblotting was performed using the IBind Flex Western System (Thermo Fischer Scientific, Waltham, MA) that applies sequential lateral flow to perform blocking and antibody binding. […] For all immunoblotting, the Odyssey LI-COR scanner and software (LI-COR Biotechnology, Lincoln, NE) were used for detection and quantitative analysis.

[5] = tested on: AMPKα1 wild-type (WT) and knockout (KO) mice; experiment: Plasma levels of humanin by competitive ELISA after hemorrhagic shock; type: in vivo; settings: 100 μg/kg intra-arterially, 3 h after resuscitation
Text: as §1
Plasma levels of humanin. Endogenous plasma levels of humanin were measured by competitive ELISA ([…], MyBioSource, San Diego, CA) using the protocol recommended by the manufacturer.

[6] = heart, WT mice, 100 μg/kg intra-arterially
[7] = lung, mice of both genotypes, 100 μg/kg intra-arterially
[8] = heart mitochondria, WT or KO mice, compared to vehicle-treated mice

Substance: [Gly14]-Humanin (MAPRGFSCLLLLTGEIDLPVKRRA) [humanin-G, synthetic humanin analogue, serine at position 14 replaced by glycine]
- lung architecture (histology) [1]: significantly improved
- cytosolic or nuclear expression of pSTAT3(Ser727) in heart (STAT3; [6]): did not affect
- cytosolic or nuclear expression of pSTAT3(Tyr705) in heart (STAT3; [6]): did not affect
- total levels of STAT3 in heart (STAT3; heart, across experimental groups, WT or KO mice): no difference
- total levels of STAT3 in lung (STAT3; lung, across experimental groups, WT or KO mice): no difference
- pSTAT3(Ser727) in lung cytosol and nucleus (STAT3; [7]): upregulated only in the nucleus
- pSTAT3(Tyr705) in lung cytosol and nucleus (STAT3; [7]): further upregulated
- cardiac ATP levels [2]: increased
- MABP recovery to baseline ([3]; AMPKα1 KO mice, 100 μg/kg intra-arterially at resuscitation, 1 h, 2 h): did not completely recover to baseline
- mean arterial blood pressure (MABP) ([3]; AMPKα1 WT and KO female mice, 100 μg/kg intra-arterially at resuscitation and 1 h and 2 h thereafter, compared to vehicle-treated groups): significantly ameliorated
- heart rate (HR) ([3]; AMPKα1 WT or KO mice, 100 μg/kg intra-arterially, compared to vehicle-treated groups): did not affect
- mitochondrial expression of GRIM-19 in heart [4, 8]: did not affect
- mitochondrial expression of pSTAT3(Ser727) in heart [4, 8]: did not affect
- mitochondrial expression of pSTAT3(Ser727) in lung ([4]; isolated lung mitochondria, WT and KO mice, 100 μg/kg intra-arterially): slightly, but not significantly, increased
- GRIM-19 expression in lung mitochondria ([4]; KO mice, 100 μg/kg intra-arterially): did not affect
- GRIM-19 expression in lung mitochondria ([4]; WT mice, 100 μg/kg intra-arterially): restored levels of GRIM-19 similarly to basal levels
- plasma humanin levels compared to vehicle-treated groups ([5]; AMPKα1 WT and KO mice): not statistically different
- plasma levels of humanin compared to control mice ([5]; AMPKα1 WT mice, but not KO mice): comparable with levels of control mice
